From patent US11406622B2, “Glaucocalyxin a derivative, pharmaceutically acceptable salt thereof, or pharmaceutical composition thereof and uses thereof in preparation of drugs for treating psoriasis” (SUZHOU PHARMAVAN CO., LTD., priority 2017, dated 2022)
pIC50: −log10 of the molar value. Like-named read-outs stand apart in the source and are kept apart here.

Legend:
HaCaT keratinocytes = experiment: Time- and dose-dependent inhibition of proliferation of human keratinocytes, CCK-8 (Example 6); assay type: cell-based
Protocol: In this example, the glaucocalyxin A derivatives of the present application and pharmaceutically acceptable salts thereof were examined for the relationship between the inhibitory rate thereof on the proliferation of human keratinocytes and its concentration. Compound 23 as shown in Table 1 was used as an exemplary compound to be examined by using the following procedure.
A cell suspension was prepared and inoculated into three 96-well plates at 8000 cells in a volume of 150 μl per well, which were then cultured overnight in an incubator at 37° C., 5% CO2. On the next day, 50 μl of test compound solution at different concentrations was added to each well. Triplicate wells were set up for each concentration. A vehicle control group (without compound), a cell control group (without compound and without vehicle), and a blank medium control group (without cells, a well for null adjustment) were also set up, and cultured for additional 24, 48, and 72 hours. CCK-8 staining working solution was added at 110 μL per well, and cultured for additional 1-4 h. At the end of the culture, the absorbances were measured at 450 nm (OD450 nm) on a Bio-Tek enzyme-linked immunosorbent assay. The results were expressed as the mean OD450 nm value of the triplicates±standard deviation (x±sd). Prism Graph was used for plotting and analysis. The cell inhibitory rate of each group was calculated according to the mean value of the treatment group with each compound at each concentration and the mean value of the vehicle control group, that is, the cell inhibitory rate (%)=[1−(the mean value of the treatment group−the blank control group)/(the mean value of the vehicle control group−the blank control group)]×100%. A fitting curve was obtained by plotting the cell inhibitory rate of each group against the logarithmic concentration (Log C) of the test compound, and then the IC50 value was determined.

[1] = tested on: human keratinocytes (HaCaT); experiment: Effect on proliferation of human keratinocytes, CCK-8, 48 h (Example 5); assay type: cell-based; details: 48 hours of treatment
Protocol: In this example, the glaucocalyxin A derivatives of the present application, or pharmaceutically acceptable salts thereof, were examined for the effect on the proliferation of human keratinocytes. In this example, the glaucocalyxin A derivatives as shown in Table 1 were examined by using the following procedure. A cell suspension was prepared and inoculated into three 96-well plates at 8000 cells in a volume of 150 μl per well, which were then cultured overnight in an incubator at 37° C., 5% CO2. On the next day, 50 μl of test compound solution at different concentrations was added to each well. Triplicate wells were set up for each concentration. A vehicle control group (without compound), a cell control group (without compound and vehicle), and a blank medium control group (without cells, a well for null adjustment) were also set up, and cultured for an additional 48 hours. CCK-8 staining working solution was added at 110 μL per well, and cultured for additional 1-4 h. At the end of the culture, the absorbances were measured at 450 nm (OD450 nm) on a Bio-Tek enzyme-linked immunosorbent assay. The results were expressed as the mean OD450 nm value of triplicates±standard deviation (x±sd). The Origin 7.0 was used for plotting and analysis. A fitting curve was obtained by plotting the OD value of each group against the logarithmic concentration of the test compound, and then the IC50 value was determined.

Br.C=C1C(=O)C23C(O)CC4C(C)(C)c5nc(N(C)C)sc5CC4(C)C2CCC1C3O (stereo not shown) [Compound 23]
pIC50 (HaCaT keratinocytes; 24 h, read-out: IC50 at 24 h): 5.71
pIC50 (HaCaT keratinocytes; 48 h, read-out: IC50 at 48 h): 6.03
pIC50 (HaCaT keratinocytes; 72 h, read-out: IC50 at 72 h): 6.10
IC50 [1]: 0.93 µM
